Measurements published in PubChem BioAssay (NCI).
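Interpolation was linear, between the two tested concentrations surrounding the appropriate level; five concentrations were tested over 48 hours in 96-well plates. GI50 marks 50% less growth. Definition used: TGI = concentration required for complete inhibition of growth.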 Where a SMILES comes first, the peptide text is derived from it. [ ]: non-standard residue; d: D form. The star is where a group is joined. NMeAc5c = CNC1(C(=O)O)CCCC1; Boc = CC(C)(C)OC(=O)*; OBn = c1ccc(CO*)cc1

Legend:
Experiment in all cases: NCI tumour cell line growth inhibition, 48 h
KM12 colon = tested on: KM12 colon
SK-MEL-2 melanoma = tested on: SK-MEL-2 melanoma
HCT-15 colon = tested on: HCT-15 colon
UACC-62 melanoma = tested on: UACC-62 melanoma
LOX IMVI melanoma = tested on: LOX IMVI melanoma
HCC-2998 colon = tested on: HCC-2998 colon
SK-OV-3 ovarian = tested on: SK-OV-3 ovarian
A498 renal = tested on: A498 renal
MOLT-4 leukemia = tested on: MOLT-4 leukemia
EKVX NSCLC = tested on: EKVX NSCLC

O=[N+]([O-])c1ccc2c(c1)c(OCc1ccccc1)nn2Cc1ccccc1
TGI (KM12 colon): > 100 µM
TGI (SK-MEL-2 melanoma): > 100 µM
TGI (HCT-15 colon): > 100 µM
TGI (UACC-62 melanoma): > 100 µM
TGI (LOX IMVI melanoma): > 100 µM
TGI (HCC-2998 colon): > 100 µM
TGI (SK-OV-3 ovarian): > 100 µM
TGI (A498 renal): > 100 µM
TGI (MOLT-4 leukemia): > 100 µM

CN1C(=O)C2CCC(=O)N2c2cccnc21 (centres undefined)
TGI (KM12 colon): > 100 µM
TGI (SK-MEL-2 melanoma): > 100 µM
TGI (HCT-15 colon): > 100 µM
TGI (UACC-62 melanoma): > 100 µM
TGI (EKVX NSCLC): > 100 µM
TGI (LOX IMVI melanoma): > 100 µM
TGI (HCC-2998 colon): > 100 µM
TGI (MOLT-4 leukemia): > 100 µM

O=C1c2ccccc2-c2c1c1ccccc1c(=O)n2CCNCCNCCNCCn1c2c(c3ccccc3c1=O)C(=O)c1ccccc1-2
GI50 (KM12 colon): 0.669 µM
TGI (KM12 colon): 3.22 µM
GI50 (HCT-15 colon): 0.579 µM
TGI (HCT-15 colon): 2.11 µM
GI50 (UACC-62 melanoma): 0.379 µM
TGI (UACC-62 melanoma): 1.54 µM
GI50 (EKVX NSCLC): 1.28 µM
TGI (EKVX NSCLC): 2.81 µM
GI50 (LOX IMVI melanoma): 0.0709 µM
TGI (LOX IMVI melanoma): 0.572 µM
GI50 (HCC-2998 colon): 0.591 µM
TGI (HCC-2998 colon): 6.11 µM

CCOC(=O)CSc1c(C(=O)OCC)c(=O)n(-c2ccccc2)c(=S)n1-c1ccccc1
TGI (KM12 colon): > 100 µM
TGI (SK-MEL-2 melanoma): > 100 µM
TGI (HCT-15 colon): > 100 µM
TGI (UACC-62 melanoma): > 100 µM
TGI (EKVX NSCLC): > 100 µM
TGI (LOX IMVI melanoma): > 100 µM
TGI (SK-OV-3 ovarian): > 100 µM
TGI (MOLT-4 leukemia): > 100 µM

CC1CCC(n2c3cnccc3c3cnc(Nc4ccc5c(n4)CCN(C(=O)CO)C5)nc32)CC1 (centres undefined)
GI50 (KM12 colon): 0.0812 µM
TGI (KM12 colon): > 100 µM
GI50 (SK-MEL-2 melanoma): > 100 µM
TGI (SK-MEL-2 melanoma): > 100 µM
GI50 (HCT-15 colon): 0.418 µM
TGI (HCT-15 colon): > 100 µM
GI50 (EKVX NSCLC): > 100 µM
TGI (EKVX NSCLC): > 100 µM
GI50 (LOX IMVI melanoma): 0.496 µM
TGI (LOX IMVI melanoma): > 100 µM
GI50 (SK-OV-3 ovarian): > 100 µM
TGI (SK-OV-3 ovarian): > 100 µM
GI50 (MOLT-4 leukemia): 0.211 µM
TGI (MOLT-4 leukemia): > 100 µM

O=C1CSC(c2ccc(Cl)cc2)N1c1ccc(Oc2ccc(Cl)cc2)c(Cl)c1 (centres undefined)
TGI (KM12 colon): 29.4 µM
TGI (SK-MEL-2 melanoma): 33.9 µM
TGI (HCT-15 colon): 29.5 µM
TGI (UACC-62 melanoma): 28.8 µM
TGI (EKVX NSCLC): 27.2 µM
TGI (LOX IMVI melanoma): 30.7 µM
TGI (HCC-2998 colon): 33.4 µM
TGI (SK-OV-3 ovarian): 31.9 µM
TGI (MOLT-4 leukemia): 45 µM

COC(CCC[N+](C)(C)C)CC[N+](C)(C)C (centres undefined)
TGI (HCT-15 colon): > 100 µM
TGI (UACC-62 melanoma): > 100 µM
TGI (EKVX NSCLC): > 100 µM
TGI (HCC-2998 colon): > 100 µM
TGI (SK-OV-3 ovarian): > 100 µM
TGI (MOLT-4 leukemia): > 100 µM

CN(C(=O)C(Cc1ccccc1)NC(=O)OC(C)(C)C)C1(C(=O)NC(Cc2ccccc2)C(=O)OCc2ccccc2)CCCC1 (stereo not drawn) (Boc-Phe-[NMeAc5c]-Phe-OBn; configuration not given here)
TGI (KM12 colon): > 100 µM
TGI (SK-MEL-2 melanoma): > 100 µM
TGI (HCT-15 colon): > 100 µM
TGI (UACC-62 melanoma): 71.2 µM
TGI (EKVX NSCLC): > 100 µM
TGI (LOX IMVI melanoma): > 100 µM
TGI (HCC-2998 colon): > 100 µM
TGI (SK-OV-3 ovarian): 41.3 µM
TGI (MOLT-4 leukemia): 84.2 µM

O=C1/C(=C\c2ccccc2)C(NC2CCCCC2)c2ccccc21 (centres undefined)
TGI (KM12 colon): 15.9 µM
TGI (SK-MEL-2 melanoma): 5.25 µM
TGI (HCT-15 colon): 5.79 µM
TGI (UACC-62 melanoma): 6.2 µM
TGI (EKVX NSCLC): 11.2 µM
TGI (LOX IMVI melanoma): 3.33 µM
TGI (SK-OV-3 ovarian): 27 µM
TGI (A498 renal): 32.7 µM
TGI (MOLT-4 leukemia): 3.02 µM

COc1cccc(C(=O)O[C@H]2[C@@H]3[C@]4(OC(C)=O)CO[C@@H]4C[C@H](O)[C@@]3(C)C(=O)[C@H](OC(C)=O)C3=C(C)[C@@H](OC(=O)[C@H](O)[C@@H](NC(=O)OC(C)(C)C)c4ccco4)C[C@]2(O)C3(C)C)c1
TGI (KM12 colon): > 15.2 µM
TGI (SK-MEL-2 melanoma): 16.9 µM
TGI (HCT-15 colon): > 16.4 µM
TGI (UACC-62 melanoma): > 27.6 µM
TGI (EKVX NSCLC): > 28.9 µM
TGI (LOX IMVI melanoma): > 15.6 µM
TGI (SK-OV-3 ovarian): 0.0279 µM
TGI (MOLT-4 leukemia): 9.99 µM

Nc1nc(Cl)cc(NCC2(CO)CC(=O)C2)n1
TGI (KM12 colon): > 100 µM
TGI (SK-MEL-2 melanoma): > 100 µM
TGI (HCT-15 colon): > 100 µM
TGI (UACC-62 melanoma): > 100 µM
TGI (EKVX NSCLC): > 100 µM
TGI (LOX IMVI melanoma): > 100 µM
TGI (HCC-2998 colon): > 100 µM
TGI (SK-OV-3 ovarian): > 100 µM
TGI (MOLT-4 leukemia): > 100 µM

Cc1c(O)c(O)cc[n+]1C1OC(CO)C(O)C1O (centres undefined)
TGI (KM12 colon): > 100 µM
TGI (SK-MEL-2 melanoma): > 100 µM
TGI (HCT-15 colon): > 100 µM
TGI (UACC-62 melanoma): > 100 µM
TGI (EKVX NSCLC): > 100 µM
TGI (LOX IMVI melanoma): > 100 µM
TGI (HCC-2998 colon): > 100 µM
TGI (SK-OV-3 ovarian): > 100 µM
TGI (A498 renal): > 100 µM

COC(=O)c1c(C)cccc1C1CN=NC12Cc1ccc(C)cc1C2=O (centres undefined)
TGI (KM12 colon): > 100 µM
TGI (HCT-15 colon): > 100 µM
TGI (UACC-62 melanoma): 78.5 µM
TGI (EKVX NSCLC): > 100 µM
TGI (LOX IMVI melanoma): > 100 µM
TGI (HCC-2998 colon): > 100 µM
TGI (A498 renal): > 100 µM
TGI (MOLT-4 leukemia): 84.7 µM

O=C(NC(=O)c1ccccc1[N+](=O)[O-])Nc1ccc(Oc2ncc(Br)cn2)c(Cl)c1
GI50 (KM12 colon): < 0.0196 µM
GI50 (SK-MEL-2 melanoma): 0.321 µM
GI50 (HCT-15 colon): < 0.0258 µM
TGI (HCT-15 colon): > 42.7 µM
GI50 (EKVX NSCLC): 0.868 µM
GI50 (LOX IMVI melanoma): < 0.0208 µM
TGI (LOX IMVI melanoma): > 100 µM
GI50 (HCC-2998 colon): 0.0497 µM
TGI (HCC-2998 colon): 32.9 µM
GI50 (SK-OV-3 ovarian): < 0.0176 µM
TGI (A498 renal): 0.052 µM
GI50 (MOLT-4 leukemia): < 0.0222 µM

N#Cc1c(-c2ccccc2)/c(=C\Nc2cccc(C(F)(F)F)c2)c(=O)n2c1nc1ccccc12
TGI (KM12 colon): 53.4 µM
TGI (SK-MEL-2 melanoma): > 100 µM
TGI (HCT-15 colon): > 100 µM
TGI (EKVX NSCLC): 74.2 µM
TGI (LOX IMVI melanoma): > 100 µM
TGI (HCC-2998 colon): > 100 µM
TGI (SK-OV-3 ovarian): 91.6 µM
TGI (A498 renal): > 100 µM

COCO[C@@H]1C[C@H]2C(=O)Nc3ccccc3C(=O)N2C1
TGI (KM12 colon): > 100 µM
TGI (SK-MEL-2 melanoma): > 100 µM
TGI (HCT-15 colon): > 100 µM
TGI (UACC-62 melanoma): > 100 µM
TGI (EKVX NSCLC): > 100 µM
TGI (LOX IMVI melanoma): > 100 µM
TGI (SK-OV-3 ovarian): > 100 µM
TGI (A498 renal): > 100 µM

CC(C)CCS(=O)(=O)OCCCCOS(=O)(=O)CCC(C)C
TGI (KM12 colon): > 100 µM
TGI (HCT-15 colon): > 100 µM
TGI (UACC-62 melanoma): > 100 µM
TGI (EKVX NSCLC): > 100 µM
TGI (LOX IMVI melanoma): > 100 µM
TGI (HCC-2998 colon): > 100 µM
TGI (SK-OV-3 ovarian): > 100 µM
TGI (MOLT-4 leukemia): > 100 µM

c1ccc(-c2nc(-c3ccccc3SSc3ccccc3-c3nc(-c4ccccc4)nn3-c3ccccc3)n(-c3ccccc3)n2)cc1
TGI (KM12 colon): > 100 µM
TGI (HCT-15 colon): > 100 µM
TGI (UACC-62 melanoma): > 100 µM
TGI (EKVX NSCLC): > 100 µM
TGI (LOX IMVI melanoma): > 100 µM
TGI (HCC-2998 colon): > 100 µM
TGI (SK-OV-3 ovarian): > 100 µM
TGI (A498 renal): > 100 µM
TGI (MOLT-4 leukemia): > 100 µM

O=C1/C(=C/c2ccccc2)N=C2Sc3c(nc[nH]c3=O)N12
TGI (KM12 colon): > 100 µM
TGI (SK-MEL-2 melanoma): > 100 µM
TGI (HCT-15 colon): > 100 µM
TGI (EKVX NSCLC): > 100 µM
TGI (LOX IMVI melanoma): > 100 µM
TGI (HCC-2998 colon): > 100 µM
TGI (SK-OV-3 ovarian): > 100 µM
TGI (A498 renal): > 100 µM
TGI (MOLT-4 leukemia): > 100 µM

[N-]=[N+]=NC[C@H]1OCO[C@H](CN=[N+]=[N-])[C@@H](OCCOCCCl)[C@@H]1OCCOCCCl
TGI (KM12 colon): > 100 µM
TGI (SK-MEL-2 melanoma): > 100 µM
TGI (HCT-15 colon): > 100 µM
TGI (UACC-62 melanoma): > 100 µM
TGI (EKVX NSCLC): > 100 µM
TGI (LOX IMVI melanoma): > 100 µM
TGI (HCC-2998 colon): > 100 µM
TGI (SK-OV-3 ovarian): > 100 µM
TGI (MOLT-4 leukemia): > 100 µM

NC(=O)NCCCC(NC(=O)OCCCCn1ccc(=O)[nH]c1=O)C(=O)O (centres undefined)
TGI (KM12 colon): > 100 µM
TGI (SK-MEL-2 melanoma): > 100 µM
TGI (HCT-15 colon): > 100 µM
TGI (UACC-62 melanoma): > 100 µM
TGI (EKVX NSCLC): > 100 µM
TGI (LOX IMVI melanoma): > 100 µM
TGI (HCC-2998 colon): > 100 µM
TGI (SK-OV-3 ovarian): > 100 µM
TGI (MOLT-4 leukemia): > 100 µM

COc1cc(C(=O)N(C(=S)OCc2ccccn2)c2ccccc2)cc(OC)c1OC
TGI (KM12 colon): > 100 µM
TGI (SK-MEL-2 melanoma): > 100 µM
TGI (HCT-15 colon): > 100 µM
TGI (UACC-62 melanoma): > 100 µM
TGI (EKVX NSCLC): 79.9 µM
TGI (LOX IMVI melanoma): > 100 µM
TGI (SK-OV-3 ovarian): > 100 µM
TGI (A498 renal): > 100 µM
TGI (MOLT-4 leukemia): > 100 µM
